# Data taken from patent US11081236B2, “Diagnostic and therapeutic methods for the treatment of breast cancer” (GENENTECH, INC., priority 2018, dated 2021).
# Experiments:
# Type in all cases: cell-based
# MCF7 = assay: RNA sequencing after E2 or DMSO treatment, MCF7
# Experimental: (§1) To derive a transcriptional signature of ER pathway activity, RNA sequencing was performed on seven breast cancer cell lines following treatment with either DMSO or 1 μM estradiol (E2) for 24 hours. Briefly, RNA libraries for cell lines were made with TRUSEQ® RNA sample preparation kit (ILLUMINA®) according to the manufacturer's protocol. The libraries were sequenced on an ILLUMINA® Hi Seq 2000, using 1-4 lanes per cell line. RNA sequencing (RNA-seq) data were analyzed with HTSeqGenie (R package version 3.14.0) in BioConductor (Huber et al. Nature Methods. 112:115-21, 2015) as follows: reads were trimmed to 75 base pairs (bp), filtered for quality and rRNA/adapter contamination, and aligned to the reference genome GRCh38 using GSNAP (Wu et al. Bioinforma Oxf Engl. 26:873-81, 2010). Gene expression was quantified as Reads per Kilobase of exon model per Million mapped reads normalized by size factor (nRPKM), defined as number of reads aligning to a gene in a sample/(total number of uniquely mapped reads for that sample x gene length x size factor). Genes without gene symbol and genes of uncertain function (LOC and Corf symbols) were excluded.
# MDA-MB-330 = assay: RNA sequencing after E2 or DMSO treatment, MDA-MB-330
# Experimental: as §1
# CAMA1 = assay: RNA sequencing after E2 or DMSO treatment, CAMA1
# Experimental: as §1
# T47D = assay: RNA sequencing after E2 or DMSO treatment, T47D
# Experimental: as §1
# [1] = gene BAMBI, 1 μM E2 24 hours vs DMSO
# [2] = gene BCAS1, 1 μM E2 24 hours vs DMSO
# [3] = gene CCNG2, 1 μM E2 24 hours vs DMSO
# [4] = gene DDEE4, 1 μM E2 24 hours vs DMSO
# [5] = gene EGLN3, 1 μM E2 24 hours vs DMSO
# [6] = gene FAM1718, 1 μM E2 24 hours vs DMSO
# [7] = gene GRM4, 1 μM E2 24 hours vs DMSO
# [8] = gene IL1R1, 1 μM E2 24 hours vs DMSO
# [9] = gene LIPH, 1 μM E2 24 hours vs DMSO
# [10] = gene NBEA, 1 μM E2 24 hours vs DMSO
# [11] = gene PNPLA7, 1 μM E2 24 hours vs DMSO
# [12] = gene PSCA, 1 μM E2 24 hours vs DMSO
# [13] = gene SEMASE, 1 μM E2 24 hours vs DMSO
# [14] = gene SSPO, 1 μM E2 24 hours vs DMSO
# [15] = gene STON1, 1 μM E2 24 hours vs DMSO
# [16] = gene TGFB3, 1 μM E2 24 hours vs DMSO
# [17] = gene TP53INP1, 1 μM E2 24 hours vs DMSO
# [18] = gene TP53INP2, 1 μM E2 24 hours vs DMSO
compound,measurement,setting,value
"C[C@]12CC[C@@H]3c4ccc(O)cc4CC[C@H]3[C@@H]1CC[C@@H]2O [Compound E2, estradiol]",Log2 FC E2 vs no E2: BAMBI,MCF7; [1],−0.571
same,Log2 FC E2 vs no E2: BCAS1,MCF7; [2],−0.981
same,Log2 FC E2 vs no E2: CCNG2,MCF7; [3],−1.267
same,Log2 FC E2 vs no E2: DDEE4,MCF7; [4],−1.080
same,Log2 FC E2 vs no E2: EGLN3,MCF7; [5],−1.090
same,Log2 FC E2 vs no E2: FAM1718,MCF7; [6],−1.287
same,Log2 FC E2 vs no E2: GRM4,MCF7; [7],−1.106
same,Log2 FC E2 vs no E2: IL1R1,MCF7; [8],−2.160
same,Log2 FC E2 vs no E2: LIPH,MCF7; [9],−1.170
same,Log2 FC E2 vs no E2: NBEA,MCF7; [10],−1.132
same,Log2 FC E2 vs no E2: PNPLA7,MCF7; [11],−1.046
same,Log2 FC E2 vs no E2: PSCA,MCF7; [12],−2.199
same,Log2 FC E2 vs no E2: SEMASE,MCF7; [13],−1.034
same,Log2 FC E2 vs no E2: SSPO,MCF7; [14],−1.338
same,Log2 FC E2 vs no E2: STON1,MCF7; [15],−2.067
same,Log2 FC E2 vs no E2: TGFB3,MCF7; [16],−1.707
same,Log2 FC E2 vs no E2: TP53INP1,MCF7; [17],−1.816
same,Log2 FC E2 vs no E2: TP53INP2,MCF7; [18],−1.207
same,Log2 FC E2 vs no E2: BAMBI,MDA-MB-330; [1],−1.352
same,Log2 FC E2 vs no E2: BCAS1,MDA-MB-330; [2],−1.772
same,Log2 FC E2 vs no E2: CCNG2,MDA-MB-330; [3],−1.009
same,Log2 FC E2 vs no E2: DDEE4,MDA-MB-330; [4],−1.321
same,Log2 FC E2 vs no E2: EGLN3,MDA-MB-330; [5],−2.785
same,Log2 FC E2 vs no E2: FAM1718,MDA-MB-330; [6],−2.790
same,Log2 FC E2 vs no E2: GRM4,MDA-MB-330; [7],−2.281
same,Log2 FC E2 vs no E2: IL1R1,MDA-MB-330; [8],−0.941
same,Log2 FC E2 vs no E2: LIPH,MDA-MB-330; [9],−1.737
same,Log2 FC E2 vs no E2: NBEA,MDA-MB-330; [10],−1.044
same,Log2 FC E2 vs no E2: PNPLA7,MDA-MB-330; [11],−1.084
same,Log2 FC E2 vs no E2: PSCA,MDA-MB-330; [12],−2.529
same,Log2 FC E2 vs no E2: SEMASE,MDA-MB-330; [13],−2.427
same,Log2 FC E2 vs no E2: SSPO,MDA-MB-330; [14],−1.383
same,Log2 FC E2 vs no E2: STON1,MDA-MB-330; [15],−1.081
same,Log2 FC E2 vs no E2: TGFB3,MDA-MB-330; [16],−1.111
same,Log2 FC E2 vs no E2: TP53INP1,MDA-MB-330; [17],−1.304
same,Log2 FC E2 vs no E2: TP53INP2,MDA-MB-330; [18],−1.210
same,Log2 FC E2 vs no E2: BAMBI,CAMA1; [1],−1.072
same,Log2 FC E2 vs no E2: BCAS1,CAMA1; [2],−2.311
same,Log2 FC E2 vs no E2: CCNG2,CAMA1; [3],−2.094
same,Log2 FC E2 vs no E2: DDEE4,CAMA1; [4],−2.737
same,Log2 FC E2 vs no E2: EGLN3,CAMA1; [5],−1.533
same,Log2 FC E2 vs no E2: FAM1718,CAMA1; [6],−2.271
same,Log2 FC E2 vs no E2: GRM4,CAMA1; [7],−2.021
same,Log2 FC E2 vs no E2: IL1R1,CAMA1; [8],−1.686
same,Log2 FC E2 vs no E2: LIPH,CAMA1; [9],−1.583
same,Log2 FC E2 vs no E2: NBEA,CAMA1; [10],−1.550
same,Log2 FC E2 vs no E2: PNPLA7,CAMA1; [11],−2.068
same,Log2 FC E2 vs no E2: PSCA,CAMA1; [12],−3.517
same,Log2 FC E2 vs no E2: SEMASE,CAMA1; [13],−1.374
same,Log2 FC E2 vs no E2: SSPO,CAMA1; [14],−2.298
same,Log2 FC E2 vs no E2: STON1,CAMA1; [15],−2.609
same,Log2 FC E2 vs no E2: TGFB3,CAMA1; [16],−1.444
same,Log2 FC E2 vs no E2: TP53INP1,CAMA1; [17],−3.177
same,Log2 FC E2 vs no E2: TP53INP2,CAMA1; [18],−2.068
same,Log2 FC E2 vs no E2: BAMBI,T47D; [1],−1.394
same,Log2 FC E2 vs no E2: BCAS1,T47D; [2],−2.536
same,Log2 FC E2 vs no E2: CCNG2,T47D; [3],−1.310
same,Log2 FC E2 vs no E2: DDEE4,T47D; [4],−1.878
same,Log2 FC E2 vs no E2: EGLN3,T47D; [5],−2.052
same,Log2 FC E2 vs no E2: FAM1718,T47D; [6],−1.158
same,Log2 FC E2 vs no E2: GRM4,T47D; [7],−1.340
same,Log2 FC E2 vs no E2: IL1R1,T47D; [8],−2.433
same,Log2 FC E2 vs no E2: LIPH,T47D; [9],−1.330
